# Assays:
# [1] = system: HT-1080 cells expressing IDH1R132C; assay: 2-HG production inhibitory activity using HT1080 cell; format: cell-based, human; conditions: Homo sapiens, HT-1080; 2-HG production, HT1080 cells; read-out: Test Example 3 IC50
# Description: Then, 100 μL of growth medium B was added to each well, further 25 μL of a solution of each compound diluted to a predetermined concentration with growth medium B was added to each well, and the cells were incubated at 37° C. for 2 days under 5% CO2. […] Then, 150 μL of ultrapure water was further added to each well, and the mixture was stirred by pipetting and stored at −20° C.
# The preserved solutions were thawed at room temperature.
# [2] = target: IDH1R132C (Homo sapiens (Human), UniProt O75874, R132C); assay: Inhibitory activity against IDH1R132C enzyme (NADPH detection, WST-8); format: biochemical; conditions: 10 nM, residual NADPH detected with WST-8, read-out: Test Example 1 IDH1 R132C IC50
# Sequence of IDH1R132C (O75874 whole entry R132C): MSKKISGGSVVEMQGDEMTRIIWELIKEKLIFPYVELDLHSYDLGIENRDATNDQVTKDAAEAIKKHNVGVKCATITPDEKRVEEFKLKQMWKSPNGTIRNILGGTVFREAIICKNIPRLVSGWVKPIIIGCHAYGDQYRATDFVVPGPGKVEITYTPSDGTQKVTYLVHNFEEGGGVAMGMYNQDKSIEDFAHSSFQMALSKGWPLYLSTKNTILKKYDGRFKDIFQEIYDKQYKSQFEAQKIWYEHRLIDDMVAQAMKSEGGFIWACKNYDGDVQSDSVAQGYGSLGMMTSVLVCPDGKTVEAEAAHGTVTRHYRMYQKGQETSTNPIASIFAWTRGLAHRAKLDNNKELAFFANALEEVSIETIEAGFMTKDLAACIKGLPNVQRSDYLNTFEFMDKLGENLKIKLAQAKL
# [3] = system: HT1080 xenografted mice (IDH1R132C); assay: 2-HG production inhibitory activity using HT1080 xenografted mice; format: in vivo, mouse; conditions: Mus musculus, HT-1080, po, 6 h, 2-HG production, HT1080 xenografted mice; read-out: Test Example 5 Ratio (%)
# Summary of the method: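 Mice bearing HT1080 tumors received 75 mg/kg compound by oral gavage twice a day, three doses in total, at 10 mL/kg; vehicle-dosed mice were negative controls. Tumors were collected 6 h after the final dose, frozen, homogenized in methanol and centrifuged, and 2-HG was measured in the extracts.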
IC50 [1],IC50 [2],Compound,response vs control in vivo at 75 mg/kg [3]
92 nM,116 nM,"Cc1cc(C)c(-c2noc(C(C)(C)F)c2C(=O)n2cc(C)c3c(/C=C/C(=O)O)cccc32)c(C)c1 [Example 60, (2E)-3-(1-{[5-(2-Fluoropropan-2-yl)-3-(2,4,6-trimethylphenyl)-1,2-oxazol-4-yl]carbonyl}-3-methyl-1H-indol-4-yl)prop-2-enoic acid]",9%
2 nM,117 nM,C=CC(=O)N1CCC(OC)(c2onc(-c3c(Cl)cc(Cl)cc3Cl)c2C(=O)n2cc(C)c3c(/C=C/C(=O)O)cccc32)CC1 [Example 117],10%
34 nM,272 nM,C=CC(=O)N1CCC(c2onc(-c3c(Cl)cc(Cl)cc3Cl)c2C(=O)n2ccc3c(/C=C/C(=O)O)cccc32)CC1 [Example 99],15%
35 nM,161 nM,"COC1(c2onc(-c3c(Cl)cc(Cl)cc3Cl)c2C(=O)n2cc(C)c3c(/C=C/C(=O)O)cccc32)CCC1 [Example 79, (2E)-3-(1-{[5-(1-Methoxycyclobutyl)-3-(2,4,6-trichlorophenyl)-1,2-oxazol-4-yl]carbonyl}-3-methyl-1H-indol-4-yl)prop-2-enoic acid]",15%
299 nM,141 nM,"C=CC(=O)N1CCC(c2onc(-c3c(Cl)cc(Cl)cc3Cl)c2C(=O)c2cn(C)c3c(/C=C/C(=O)O)cccc23)CC1 [Example 166, (2E)-3-(3-{[5-(1-Acryloylpiperidin-4-yl)-3-(2,4,6-trichlorophenyl)-1,2-oxazol-4-yl]carbonyl}-1-methyl-1H-indol-7-yl)prop-2-enoic acid]",81%
194 nM,189 nM,"COC1(c2onc(-c3c(Cl)cc(Cl)cc3Cl)c2C(=O)n2ccc3c(/C=C/C(=O)O)cccc32)CC1 [Example 44, (2E)-3-(1-{[5-(1-Methoxycyclopropyl)-3-(2,4,6-trichlorophenyl)-1,2-oxazol-4-yl]carbonyl}-1H-indol-4-yl)prop-2-enoic acid]",72%
60 nM,64 nM,"COC1(c2onc(-c3c(Cl)cc(Cl)cc3Cl)c2C(=O)n2ccc3c(/C=C/C(=O)O)cccc32)COC1 [Example 3, (2E)-3-(1-{[5-(3-Methoxyoxetan-3-yl)-3-(2,4,6-trichlorophenyl)-1,2-oxazol-4-yl]carbonyl}-1H-indol-4-yl)prop-2-enoic acid]",42%
8 nM,110 nM,C=CC(=O)N1CCC(c2onc(-c3cc(F)c(Cl)cc3Cl)c2C(=O)n2cc(C)c3c(/C=C/C(=O)O)cccc32)CC1 [Example 121],8%
33 nM,56 nM,"CC1(c2onc(-c3c(Cl)cc(Cl)cc3Cl)c2C(=O)n2ccc3c(/C=C/C(=O)O)cccc32)COC1 [Example 1, (2E)-3-(1-{[5-(3-Methyloxetan-3-yl)-3-(2,4,6-trichlorophenyl)-1,2-oxazol-4-yl]carbonyl}-1H-indol-4-yl)prop-2-enoic acid]",21%
55 nM,122 nM,"C=CC(=O)N1CC2(CC2)N(c2onc(-c3c(Cl)cccc3Cl)c2C(=O)n2ccc3c(/C=C/C(=O)O)cccc32)C[C@H]1C [Example 155, (2E)-3-[1-({5-[(6R)7-Acryloyl-6-methyl-4,7-diazaspiro[2.5]oct-4-yl]-3-(2,6-dichlorophenyl)-1,2-oxazol-4-yl}carbonyl)-1H-indol-4-yl]prop-2-enoic acid]",41%
119 nM,79 nM,"Cc1cn(C(=O)c2c(-c3c(Cl)cc(F)cc3Cl)noc2C(C)(C)F)c2cccc(/C=C/C(=O)O)c12 [Example 49, (2E)-3-(1-{[3-(2,6-Dichloro-4-fluorophenyl)-5-(2-fluoropropan-2-yl)-1,2-oxazol-4-yl]carbonyl}-3-methyl-1H-indol-4-yl)prop-2-enoic acid]",44%

# From patent US10040791B2, “Isoxazole derivative as mutant isocitrate dehydrogenase 1 inhibitor” (Daiichi Sankyo Company, Limited, priority 2014, dated 2018)
